Test [1] deals with T1, Avi-KRAS G12D (1-169) GppNHp/RAF1 RBD-3xFLAG (52-151) (Homo sapiens, UniProt P01116, G12D).
T1 construct: 100 nM Avi-KRAS G12D (1-169) GppNHp
As to the kind of experiment: RAS-effector PPI HTRF disruption assay, Raf1-GppNHp-KRAS G12D. The test is classed as biochemical. The method, then:
(§1) A protein:protein interaction (PPI) Homogeneous Time Resolved Fluorescence (HTRF) assay was used to determine the effectiveness of compounds of the present disclosure in disrupting KRAS protein and effector (RAF1 or PIK3 CA) binding.
(§2) The HTRF assay used the following reagents and proteins: (i) 375 nM Avi-KRAS G12D/Q25A (1-169) GppNHp/3×FLAG-PI3KCA (157-299); (ii) 100 nM Avi-KRAS G12D (1-169) GppNHp/RAF1 RBD-3×FLAG (52-151); (iii) 50 nM Avi-KRAS G12V (1-169) GppNHp/RAF1 RBD-3×FLAG (52-151); (iv) 50 nM Avi-KRAS WT (1-169) GppNHp/RAF1 RBD-3×FLAG (52-151); and (v) 35 nM Avi-PI3K RBD CA-3×FLAG; Assay Buffer: 50 mM Tris pH 7.5, 100 mM NaCl, 5 mM MgCl2, 0.1% BSA, 0.01% Tween, 1 mM TCEP, 10% DMSO; Bead Buffer: 50 mM Tris pH 7.5, 0.01% Tween 20; Assay volume: 20 μL (384 well plate-low volume format); and Compound titration: 100-0.02 μM, 3× dilution series.
(§3) The HTRF assay employed the following protocol:
(§4) Compounds were dispensed in assay plate (384-well, Grenier Bione #784075) using Echo (model 555) with dose response settings: 200 nL final volume, titration from 100 μM as a 10-point dilution series. Protein mix was prepared in assay buffer, and dispensed on plates, 10 μL per well, then incubated for 1 h at room temperature, with 700 rpm shaking. Reagents mix was prepared and dispensed on plates, 10 μL per well, then incubated for 1 h at room temperature, with 700 rpm shaking.
(§5) Plates were analyzed on an Envision plate reader using the following setting: Excitation 320 nm, Bandwidth […]; Emission 615 nm, Bandwidth […], Gain 100%, Flashes 100, Lag 60 μs. Data was reported as percentage of activity, with DMSO as 100%. Data was plotted and analyzed using Prism 8. The SPR Kd, biochemical Raf1-KRAS G12D/G12V/WT-GppNHP and PI3KCA-KRAS G12D/Q25A-GppNHp disruption assay IC50 of selected compounds described herein are shown in Table 4.
On the technique in general: In TR-FRET formats the signal depends on donor and acceptor labels being close together.

Test [2] has as its target T2, Avi-KRAS G12D/Q25A (1-169) GppNHp/3xFLAG-PI3KCA (157-299) (Homo sapiens, UniProt P01116, G12D/Q25A).
T2 construct: 375 nM Avi-KRAS G12D/Q25A (1-169) GppNHp
As to the kind of experiment: RAS-effector PPI HTRF disruption assay, PI3KCA-GppNHp-KRAS G12D/Q25A. The test is classed as biochemical. The method, then:
as §1, §2, §3, §4, §5

For test [3], the target named is T3, Avi-KRAS G12V (1-169) GppNHp/RAF1 RBD-3xFLAG (52-151) (Homo sapiens, UniProt P01116, G12V).
T3 construct: 50 nM Avi-KRAS G12V (1-169) GppNHp
Nature of the test: RAS-effector PPI HTRF disruption assay, Raf1-GppNHp-KRAS G12V. The test is classed as biochemical. The protocol: as §1, §2, §3, §4, §5

The target in test [4] is T4, Avi-KRAS WT (1-169) GppNHp/RAF1 RBD-3xFLAG (52-151) (Homo sapiens, UniProt P01116).
T4 construct: 50 nM Avi-KRAS WT (1-169) GppNHp
Nature of the test: RAS-effector PPI HTRF disruption assay, Raf1-GppNHp-KRAS WT. It is filed as biochemical. The protocol:
as §1, §2, §3, §4, §5

For test [5], the system named is pERK in GP2d cells (KRAS G12D). Nature of the test: Cell-based pERK HTRF assay in GP2d cell. The conditions noted are these: 60 min incubation. The protocol: A pERK assay (Perkin Elmer) was used to determine the effectiveness of compounds in disrupting KRAS G12D protein/effector signaling in cells.
On Day 1, cells (GP2d) were seeded into 96-well plates at 3×10^4 cells/well in 80 μL complete growth media (DMEM, 10% FBS).
On Day 2, cells were treated with compounds at 0.25% DMSO. The source plate was created with compounds diluted in media at 5-fold the final assay concentration. The compounds were run in a 9-point concentration curve starting at 1 μM, with a half-log dilution between concentrations. 20 μL was transferred onto the cell plates (final volume in wells was 100 μL). Plates were harvested after 60 min incubation by aspirating media and adding kit-supplied 1× supplemented lysis buffer to all wells (50 μL per well). Plates were then placed on a plate shaker and incubated at 850 rpm for an additional 30 min.
Antibody mixture solution is prepared by diluting aliquoted d2 and Eu Cryptate antibodies 1:20 in kit supplied detection buffer, mix the diluted antibodies solutions (1:1 v:v). 4 μL of this solution is then added to a 384-well detection plate (Perkin Elmer; 6008230).
Samples were homogenized by pipetting up and down and then transferred (16 μL of cell lysates) from the 96-well cell culture plate to two wells of the HTRF 384-well detection plate containing the antibody solution. Plates were centrifuged (524 g for 1 min) and allowed to incubate between 4 and 24 h at room temperature. Maximum signal is reached after 4 h incubation time and remains stable over a period of 24 hours. Therefore, readings can be made between 4 and 24 h of incubation. Plates were centrifuged again (524 g for Imin), then analyzed on the EnVision plate reader using the following settings: Excitation 320 nm, Bandwidth 75 nm; Emission 615 nm, Bandwidth 85 nm; Gain 100%; Flashes 100; Lag 60 μs.

Where two headings read alike, the source gives them in different places. Bounds are passed on as bounds.

Drawing on patent US20250084079A1, “COMPOSITIONS AND METHODS FOR INHIBITION OF RAS” (TheRas, Inc., priority 2022, published 2025), this text covers IC50 for 16 compounds.

T4 sequence (P01116 1-169 isoform P01116-2): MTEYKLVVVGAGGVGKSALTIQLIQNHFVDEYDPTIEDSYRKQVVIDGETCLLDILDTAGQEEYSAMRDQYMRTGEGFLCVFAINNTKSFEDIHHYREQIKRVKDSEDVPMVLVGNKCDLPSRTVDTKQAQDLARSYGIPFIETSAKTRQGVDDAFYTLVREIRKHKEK
T1 sequence (P01116 1-169 isoform P01116-2 G12D): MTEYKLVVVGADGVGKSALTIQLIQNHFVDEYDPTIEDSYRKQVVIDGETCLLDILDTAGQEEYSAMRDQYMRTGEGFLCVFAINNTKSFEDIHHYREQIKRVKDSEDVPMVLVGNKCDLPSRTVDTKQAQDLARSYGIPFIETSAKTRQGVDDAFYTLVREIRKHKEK
T2 sequence (P01116 1-169 isoform P01116-2 G12D/Q25A): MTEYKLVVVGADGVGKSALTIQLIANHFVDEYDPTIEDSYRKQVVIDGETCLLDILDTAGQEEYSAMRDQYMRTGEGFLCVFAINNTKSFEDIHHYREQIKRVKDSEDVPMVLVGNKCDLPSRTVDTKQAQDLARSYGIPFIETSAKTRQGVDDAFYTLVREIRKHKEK
T3 sequence (P01116 1-169 isoform P01116-2 G12V): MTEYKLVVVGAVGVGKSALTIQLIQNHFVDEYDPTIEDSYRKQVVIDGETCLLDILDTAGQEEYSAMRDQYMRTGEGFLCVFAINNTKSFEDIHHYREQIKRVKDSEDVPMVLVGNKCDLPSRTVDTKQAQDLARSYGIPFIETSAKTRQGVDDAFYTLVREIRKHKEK

On to `Nc1nc2c(-c3c(C(F)(F)F)cc4c(O[C@@H]5CCNC5)nc(OC[C@@]56CCCN5C[C@H](F)C6)nc4c3F)ccc(F)c2s1` (atropisomer, axis not shown) [Compound 4], for which the IC50 lay within 100 to 1000 nM in test [1], 100 to 1000 nM in test [2], 1000 to 10000 nM in test [3] and 1000 to 10000 nM in test [4].

Take `Nc1nc2c(-c3c(C(F)(F)F)cc4c(O[C@@H]5CCNC5)nc(OC[C@@]56CCCN5C[C@H](F)C6)nc4c3F)ccc(F)c2s1` (atropisomer, axis not shown) [Compound 5]: the IC50 in test [1], in test [2], in test [3] and in test [4] was more than 10000 nM in each case.

`Nc1nc2c(-c3c(C(F)(F)F)cc4c(O[C@H]5C[C@H]6CC[C@@H](C5)N6)nc(OCC56CCCN5CCC6)nc4c3F)ccc(F)c2s1` (atropisomer, axis not shown) [Compound 6]: the IC50 was 1000 to 10000 nM in test [1], 1000 to 10000 nM in test [2], more than 10000 nM in test [3] and 1000 to 10000 nM in test [4].

With `C[C@@H]1NCC[C@H]1Oc1nc(OC[C@@]23CCCN2C[C@H](F)C3)nc2c(F)c(-c3ccc(F)c4sc(N)nc34)c(C(F)(F)F)cc12` (atropisomer, axis not shown) [Compound 8], the IC50 lay in the range of 100 to 1000 nM in test [1]; 100 to 1000 nM in test [2]; 1000 to 10000 nM in test [3]; 1000 to 10000 nM in test [4]; 100 to 1000 nM in test [5] (GP2d, 1 h).

For the compound `C[C@@H]1NCC[C@H]1Oc1nc(OC[C@@]23CCCN2C[C@H](F)C3)nc2c(F)c(-c3ccc(F)c4sc(N)nc34)c(C(F)(F)F)cc12` (atropisomer, axis not shown) [Compound 9], the IC50 in test [1], in test [2], in test [3] and in test [4] was more than 10000 nM throughout.

Turning to `Nc1nc2c(-c3c(C(F)(F)F)cc4c(O[C@@H]5CCNC5)nc(OC[C@@]56CCCN5C[C@H](F)C6)nc4c3Cl)ccc(F)c2s1` (atropisomer, axis not shown) [Compound 10], the IC50 lay in the range of 100 to 1000 nM in test [1]; 100 to 1000 nM in test [2]; 1000 to 10000 nM in test [3]; 1000 to 10000 nM in test [4]; 100 to 1000 nM in test [5] (read-out: pERK-Gp2D-1 hr).

On to `Nc1nc2c(-c3c(C(F)(F)F)cc4c(O[C@@H]5CCNC5)nc(OC[C@@]56CCCN5C[C@H](F)C6)nc4c3Cl)ccc(F)c2s1` (atropisomer, axis not shown) [Compound 11], for which the IC50 in test [1] is more than 10000 nM; in test [2], more than 10000 nM; in test [3], more than 10000 nM; in test [4], more than 10000 nM; in test [5] (read-out: pERK-Gp2D-1 hr) it was more than 1000 nM.

Turning to `Nc1nc2c(-c3c(C(F)(F)F)cc4c(O[C@H]5CNCC5(F)F)nc(OC[C@@]56CCCN5C[C@H](F)C6)nc4c3F)ccc(F)c2s1` (atropisomer, axis not shown) [Compound 29], the IC50 in test [1] is more than 10000 nM; in test [2] it was more than 10000 nM; in test [3] it was more than 10000 nM; in test [4], more than 10000 nM; in test [5] (read-out: pERK-Gp2D-1 hr) it was more than 1000 nM.

On to `C[C@@H]1C[C@H](Oc2nc(OC[C@@]34CCCN3C[C@H](F)C4)nc3c(F)c(-c4ccc(F)c5sc(N)c(C#N)c45)c(Cl)cc23)CN1` (atropisomer, axis not shown) [Compound 60], for which the IC50 in test [1] was 100 to 1000 nM; in test [2] it was 100 to 1000 nM; in test [3] it was 100 to 1000 nM; in test [4], 100 to 1000 nM; in test [5] (read-out: pERK-Gp2D-1 hr) it was not above 100 nM.

As for `C[C@@H]1C[C@H](Oc2nc(OC[C@@]34CCCN3C[C@H](F)C4)nc3c(F)c(-c4ccc(F)c5sc(N)c(C#N)c45)c(Cl)cc23)CN1` (atropisomer, axis not shown) [Compound 61], the IC50 in test [1] is more than 10000 nM; in test [2], more than 10000 nM; in test [3], more than 10000 nM; in test [4], more than 10000 nM; in test [5] (read-out: pERK-Gp2D-1 hr), more than 1000 nM.

For the compound `N#Cc1c(N)sc2c(F)ccc(-c3c(Cl)cc4c(O[C@@H]5CNC[C@H]5F)nc(OC[C@@]56CCCN5C[C@H](F)C6)nc4c3F)c12` (atropisomer, axis not shown) [Compound 64], the IC50 was more than 10000 nM in test [1]; more than 10000 nM in test [2]; more than 10000 nM in test [3]; more than 10000 nM in test [4]; more than 1000 nM in test [5] (GP2d, 1 h).

For `N#Cc1c(N)sc2c(F)ccc(-c3c(Cl)cc4c(O[C@@H]5CN[C@@H](CO)C5)nc(OC[C@@]56CCCN5C[C@H](F)C6)nc4c3F)c12` (atropisomer, axis not shown) [Compound 68], the IC50 is more than 10000 nM in test [1]; more than 10000 nM in test [2]; more than 10000 nM in test [3]; more than 10000 nM in test [4]; more than 1000 nM in test [5] (read-out: pERK-Gp2D-1 hr).

`N#Cc1c(N)sc2c(F)ccc(-c3c(Cl)cc4c(O[C@@H]5CN[C@@H](CO)C5)nc(OC[C@@]56CCCN5C[C@H](F)C6)nc4c3F)c12` (atropisomer, axis not shown) [Compound 69]: the IC50 in test [1] is not above 100 nM; in test [2], 100 to 1000 nM; in test [3] it was 100 to 1000 nM; in test [4], 100 to 1000 nM; in test [5] (read-out: pERK-Gp2D-1 hr), 100 to 1000 nM.

With `N#Cc1c(N)sc2c(F)ccc(-c3c(Cl)cc4c(O[C@H]5CCN[C@@H]5CO)nc(OC[C@@]56CCCN5C[C@H](F)C6)nc4c3F)c12` (atropisomer, axis not shown) [Compound 75], the IC50 in test [1] is more than 10000 nM; in test [2], more than 10000 nM; in test [3], more than 10000 nM; in test [4], more than 10000 nM; in test [5] (read-out: pERK-Gp2D-1 hr), more than 1000 nM.

Turning to `C[C@H]1CNCC1Oc1nc(OC[C@@]23CCCN2C[C@H](F)C3)nc2c(F)c(-c3ccc(F)c4sc(N)nc34)c(C(F)(F)F)cc12` (some centres unmarked) [Compound 2], the IC50 in test [1] is 1000 to 10000 nM; in test [2], 1000 to 10000 nM; in test [3], more than 10000 nM; in test [4] it was 1000 to 10000 nM.

Consider `Nc1nc2c(-c3c(C(F)(F)F)cc4c(O[C@H]5CNC[C@H]5F)nc(OC[C@@]56CCCN5C[C@H](F)C6)nc4c3F)ccc(F)c2s1` [Compound 22, 7-fluoro-4-(8-fluoro-4-(((3S,4R)-4-fluoropyrrolidin-3-yl)oxy)-2-(((2R,7aS)-2-fluorotetrahydro-1H-pyrrolizin-7a(5H)-yl)methoxy)-6-(trifluoromethyl)quinazolin-7-yl)benzo[d]thiazol-2-amine], for which the IC50 in test [1] is more than 10000 nM; in test [2] it was 1000 to 10000 nM; in test [3], more than 10000 nM; in test [4], 1000 to 10000 nM.
